# Where “and” joins values, the source holds several entries; their conditions need not be identical. Equal entries are not always repeated. Entries after “also recorded” stand apart in the source; their conditions may differ.
# Experiments:
# COVID-19 [1] = assay: COVID-19 course in CLARIFY-MS and MAGNIFY-MS patients (case reports); assay type: in vivo, human
# Description: Disease course is reported for each of the 3 patients with respect to severity of symptoms, confirmatory status of COVID-19, hospitalisation requirement and recovery status.
# Further to the overall outcome for each of the 3 patients from the phase IV studies CLARIFY-MS and MAGNIFY-MS, data on file includes some detail regarding extent and nature of symptoms COVID-19 and concomitant diseases and medications (Table 15).
# Aside from COVID-19, no other adverse events or relevant concomitant diseases and medications are reported for Patient 3.
# COVID-19 [2] = assay: COVID-19 cases in cladribine tablets treated MS patients (Merck KGaA Global Patient Safety Database); assay type: in vivo, human
# Experimental: On this date, there were 46 patients with confirmed or suspected COVID-19 within the safety database. Patient age was available for 35 patients, with a range of 22-67 years. There were 26 females, 12 males, and 8 patients for whom gender was not reported. Cases were defined as confirmed if a confirmatory diagnostic test was reported as positive. If no confirmatory test was performed or reported, then cases were described as suspected. […] Cases were designated as serious if they fulfilled the criteria of hospitalized, considered to be life-threatening, or medically significant. In keeping with usual pharmacovigilance practices, outcome was classified as recovered, recovering, not recovered, fatal, or not reported.
# IgG and IgM = assay: Serum immunoglobulin levels (IgG, IgM) under cladribine tablets
# [3] = system: Influenza strain Yamagata (Phuket/B); assay: Hemagglutination inhibition (HAI) antibody titer, Yamagata (Phuket/B); assay type: in vivo, influenza B virus; details: 12 patients
# [4] = system: lymphocytes (ALC, CD19+ B, CD4+ T, CD8+ T); details: second treatment year (Giovannoni et al., 2010); cited from earlier work
# [5] = system: varicella zoster virus (VZV); assay type: in vivo; details: all time points examined, MAGNIFY patients
# [6] = system: Influenza strain Victoria (Colorado/B); assay: Hemagglutination inhibition (HAI) antibody titer, Victoria (Colorado/B); assay type: in vivo, influenza B virus; details: 12 patients
# [7] = TEAEs of viral and bacterial infections in patients with Grade ≥3 lymphopenia, by age; assay type: in vivo, human; details: for incidence of bronchitis / incidence of herpes zoster / incidence of pneumonia / incidence of respiratory tract infection: Grade ≥3 lymphopenia; for overall incidence of TEAEs of viral and bacterial infections: Weeks 0-96, Grade ≥3 lymphopenia
# Experimental: The definitions used for before, during, and after lymphopenia were: before (before the start date of the first lymphopenia Grade ≥3), during (on or after the start date of the first lymphopenia up and including to the last date of the last lymphopenia), and after (after the end date of the last lymphopenia). The incidence of TEAEs were summarized by Preferred Term (PT) and were coded according to the MedDRA dictionary Version 20.0. All analyses were performed using Statistical Analysis Software (SAS®), Version 9.4 or higher.
# seasonal influenza = assay type: in vivo, influenza A and B
# [8] = human, in vivo
# [9] = Patient Canada VZV-70056800222530003, month 0, 9.7 wk after Shingrix, before first Mavenclad dose
# [10] = Patient Canada VZV-70056800222530003, month 3, 23.0 wk after Shingrix, 13.3 wk after first Mavenclad dose
compound,measurement,setting,value
"Nc1nc(Cl)nc2c1ncn2[C@H]1C[C@H](O)[C@@H](CO)O1 [cladribine tablets, Cladribine]",Lymphocyte counts,"COVID-19 [1]; BL (baseline), c1-c3 = Patient 1, 2 (CLARIFY-MS), 3 (MAGNIFY-MS)",1.48 G/L and 2.80 G/L and 2.39 G/L
same,Lymphocyte counts,"COVID-19 [1]; M14 (January 2020), Patient 1",0.49 G/L
same,Lymphocyte counts,"COVID-19 [1]; Uns v. (17 Mar. 2020), Patient 2",0.20 G/L
same,Adverse events,"COVID-19 [1]; c1-c3 = Patient 1, 2, 3",Asthmatic bronchitis and Tachycardia and None and Swollen glands and Angina pectoris and Poss. reaction of EBV -
same,COVID-19 severity,"COVID-19 [1]; c1-c3 = Patient 1, 2, 3","SAE, Severe,; also recorded: Mild, not serious (no"
same,"most recent lymphocyte count, median","COVID-19 [2]; 9/46 patients, min 0.24, max 1.2",0.7 G/L
same,median time to onset of COVID-19 from last dose,COVID-19 [2]; 21/46 patients,180 days
same,range of time to onset of COVID-19 from last dose,COVID-19 [2]; 21/46 patients,3 to 559 days
same,COVID-19 cases medically significant,COVID-19 [2]; confirmed cases,1 cases
same,COVID-19 cases requiring hospitalisation,COVID-19 [2]; confirmed cases,3 cases
same,COVID-19 outcome: Not resolved,COVID-19 [2]; confirmed cases,1 cases
same,COVID-19 outcome: Recovered,COVID-19 [2]; confirmed cases,8 cases
same,COVID-19 outcome: Recovering,COVID-19 [2]; confirmed cases,2 cases
same,confirmed COVID-19 cases,COVID-19 [2]; of 46 total cases,18 cases
same,suspected COVID-19 cases,COVID-19 [2]; of 46 total cases,28 cases
same,patients with confirmed or suspected COVID-19,"COVID-19 [2]; of approximately 19,000 treated, as of 29 June 2020",46 patients
same,lymphocyte count between most recent course and onset of COVID-19,COVID-19 [2]; patient from the Netherlands,0.87 G/L
same,COVID-19 cases medically significant,COVID-19 [2]; suspected cases,1 cases
same,COVID-19 cases requiring hospitalisation,COVID-19 [2]; suspected cases,1 cases
same,COVID-19 outcome: Recovered,COVID-19 [2]; suspected cases,6 cases
same,COVID-19 outcome: Recovering,COVID-19 [2]; suspected cases,5 cases
same,COVID-19 cases that received mechanical ventilation,COVID-19 [2]; suspected or confirmed,None
same,COVID-19 deaths,COVID-19 [2]; suspected or confirmed,no deaths
same,COVID-19 symptoms in the majority of patients,COVID-19 [2]; suspected or confirmed,mild to moderate respiratory symptoms
same,IgG immunoglobulin levels vs baseline,"IgG and IgM; 1, 2, 3, 6 and 12 month",comparable to baseline
same,"IgG, change vs baseline",IgG and IgM; Month 3,+10%
same,"IgM, change vs baseline",IgG and IgM; Month 3,−5%
same,"IgG, change vs baseline",IgG and IgM; Month 6,+11%
same,"IgM, change vs baseline",IgG and IgM; Month 6,−13%
same,"IgG, change vs baseline",IgG and IgM; Month 12,+3%
same,"IgM, change vs baseline",IgG and IgM; Month 12,+21%
same,IgG levels,IgG and IgM; Patient 70056800222520001,not affected
same,IgG immunoglobulin levels,"IgG and IgM; Patient 70056800227010005, any timepoint after treatment",not affected
same,IgM,"IgG and IgM; Patient Australia VZV-70056800221260001, month 3, 24.6 wk after Zostavax, 14.7 wk after first Mavenclad dose",59 mg/dL
same,IgG,IgG and IgM; [9],"1,410 mg/dL"
same,IgM,IgG and IgM; [9],190 mg/dL
same,IgG,IgG and IgM; [10],"1,510 mg/dL"
same,IgM,IgG and IgM; [10],166 mg/dL
same,IgM levels,"IgG and IgM; month 12, still in the normal range",slightly decreased
same,immunoglobulin numbers after cladribine treatment,IgG and IgM; various time points,not decreased
same,2-fold change,[3],17%
same,4-fold change,[3],0%
same,Post-vacc seroprotection,[3],92%
same,Pre-vacc seroprotection,[3],75%
same,median ALC,[4],above 800 cells/mL
same,"post-vaccination antibody titer against VZV, protective titer",[5],≥ 100 IU/L
same,2-fold change,[6],17%
same,4-fold change,[6],8%
same,Post-vacc seroprotection,[6],92%
same,Pre-vacc seroprotection,[6],83%
same,TEAEs of viral and bacterial infections during the Year 1 Grade ≥3 lymphopenia episode,[7]; Age >50,30%
same,patients with TEAEs severe in intensity (pneumonia and bronchitis),[7]; Age >50 (1 patient),3.3%
same,patients with TEAEs mild to moderate in intensity,[7]; Age >50 (16 patients),53.3%
same,TEAEs of viral and bacterial infections during the Year 1 Grade ≥3 lymphopenia episode,[7]; Age ≤50,21.5%
same,patients with TEAEs mild to moderate in severity,[7]; Age ≤50 (103 patients),50.2%
same,incidence of bronchitis,[7]; Age >50,10%
same,incidence of herpes zoster,[7]; Age >50,13.3%
same,incidence of pneumonia,[7]; Age >50,6.7%
same,incidence of respiratory tract infection,[7]; Age >50,6.7%
same,incidence of bronchitis,[7]; Age ≤50,5.9%
same,incidence of herpes zoster,[7]; Age ≤50,3.4%
same,incidence of pneumonia,[7]; Age ≤50,1.0%
same,incidence of respiratory tract infection,[7]; Age ≤50,1.5%
same,overall incidence of TEAEs of viral and bacterial infections,[7]; Age >50 (17/30),56.7%
same,overall incidence of TEAEs of viral and bacterial infections,[7]; Age ≤50 (105/205),51.2%
same,proportion of previously seropositive patients (HAI≥40) with ≥2-fold increase against at least 1 strain,seasonal influenza; 8 patients,87.5%
same,proportion of previously seropositive patients (HAI≥40) with ≥4-fold increase against at least 1 strain,seasonal influenza; 8 patients,37.5%
same,"post-vaccination seroprotection, all Influenza strains",seasonal influenza; all vaccinated patients,92-100%
same,"rate of 2-fold change in AB titer, all strains",seasonal influenza; in vivo,17-67%
same,herpes zoster incidence,[8],0.83 episodes per 100 PY
same,incidence rate of serious infections,[8],0.8 /100 PY
same,incidence rate of total infections,[8],24.9 events per 100 patient-years (PY)
